Earlier results in patent US11980701B2, “Joint implant with constant and continuous release of therapeutic agent” (Diffusion RX, Inc., priority 2021, dated 2024).

How the values were obtained:
[1] = tested on: articular joint pain/inflammation; settings: known treatments
cartilage = settings: at low doses

Structure (SMILES)	length of effectiveness (FIG. 5A) [1]	cartilage effect in in vivo studies (cartilage)
C[C@]12CCC(=O)C=C1CC[C@@H]1[C@@H]2C(=O)C[C@@]2(C)[C@H]1CC[C@]2(O)C(=O)CO [cortisone shot, cortisone]	six to twelve	
C[C@]12C=CC(=O)C=C1CC[C@H]1[C@@H]3C[C@@H](O)[C@](O)(C(=O)CO)[C@@]3(C)C[C@H](O)[C@@]12F [triamcinolone]		significant cartilage protection
C[C@]12CCC(=O)C=C1CC[C@@H]1[C@@H]2[C@@H](O)C[C@@]2(C)[C@H]1CC[C@]2(O)C(=O)CO [hydrocortisone]		significant cartilage protection
